This series concerns CCRIS mutagenicity, Ames/micronucleus/aberration tests. The series can be described thus: CCRIS mutagenicity studies.
[1] abbreviates: Test System: AMES SALMONELLA TYPHIMURIUM, Strain/Indicator: TA98, Metabolic Activation: NONE, Method: PREINCUBATION
[2] abbreviates: Test System: AMES SALMONELLA TYPHIMURIUM, Strain/Indicator: TA100, Metabolic Activation: NONE, Method: PREINCUBATION
[3] abbreviates: Test System: AMES SALMONELLA TYPHIMURIUM, Strain/Indicator: TA1535, Metabolic Activation: NONE, Method: PREINCUBATION
[4] abbreviates: Test System: AMES SALMONELLA TYPHIMURIUM, Strain/Indicator: TA1537, Metabolic Activation: NONE, Method: PREINCUBATION

Active and inactive are the calls of the source. The rule behind the calls is not given here.

As for `CC(=O)c1cc2c(cc1C)C(C)(C)C(C)CC2(C)C` (configuration not stated), the mutagenic call runs as follows: (Test System: AMES SALMONELLA TYPHIMURIUM, Strain/Indicator: TA97, Metabolic Activation: NONE, Method: PREINCUBATION) “inactive; negative”; (Test System: AMES SALMONELLA TYPHIMURIUM, Strain/Indicator: TA97, Metabolic Activation: NONE, Method: STANDARD PLATE) “inactive; negative”; (Test System: AMES SALMONELLA TYPHIMURIUM, Strain/Indicator: TA97, Metabolic Activation: RAT LIVER S-9, AROCLOR 1254, Method: STANDARD PLATE) “inactive; negative”; (Test System: AMES SALMONELLA TYPHIMURIUM, Strain/Indicator: TA97, Metabolic Activation: RAT LIVER S-9, PHENOBARBITAL, BETA-NAPHTHOFLAVONE, Method: PREINCUBATION) “inactive; negative”; (Test System: AMES SALMONELLA TYPHIMURIUM, Strain/Indicator: TA97, Metabolic Activation: RAT LIVER S-9, PHENOBARBITAL, BETA-NAPHTHOFLAVONE, Method: STANDARD PLATE) “inactive; negative”; under setting [1], “inactive; negative”. In addition, the mutagenic call (Test System: AMES SALMONELLA TYPHIMURIUM, Strain/Indicator: TA98, Metabolic Activation: NONE, Method: STANDARD PLATE) is “inactive; negative”; the mutagenic call (Test System: AMES SALMONELLA TYPHIMURIUM, Strain/Indicator: TA98, Metabolic Activation: RAT LIVER S-9, AROCLOR 1254, Method: STANDARD PLATE) is “inactive; negative”; the mutagenic call (Test System: AMES SALMONELLA TYPHIMURIUM, Strain/Indicator: TA98, Metabolic Activation: RAT LIVER S-9, PHENOBARBITAL, BETA-NAPHTHOFLAVONE, Method: PREINCUBATION) was “inactive; negative”; the mutagenic call (Test System: AMES SALMONELLA TYPHIMURIUM, Strain/Indicator: TA98, Metabolic Activation: RAT LIVER S-9, PHENOBARBITAL, BETA-NAPHTHOFLAVONE, Method: STANDARD PLATE) is “inactive; negative”; the mutagenic call under setting [2] is “inactive; negative”; the mutagenic call (Test System: AMES SALMONELLA TYPHIMURIUM, Strain/Indicator: TA100, Metabolic Activation: NONE, Method: STANDARD PLATE) is “inactive; negative”. Moreover, the mutagenic call runs as follows: (Test System: AMES SALMONELLA TYPHIMURIUM, Strain/Indicator: TA100, Metabolic Activation: RAT LIVER S-9, AROCLOR 1254, Method: STANDARD PLATE) “inactive; negative”; (Test System: AMES SALMONELLA TYPHIMURIUM, Strain/Indicator: TA100, Metabolic Activation: RAT LIVER S-9, PHENOBARBITAL, BETA-NAPHTHOFLAVONE, Method: PREINCUBATION) “inactive; negative”; (Test System: AMES SALMONELLA TYPHIMURIUM, Strain/Indicator: TA100, Metabolic Activation: RAT LIVER S-9, PHENOBARBITAL, BETA-NAPHTHOFLAVONE, Method: STANDARD PLATE) “inactive; negative”; (Test System: AMES SALMONELLA TYPHIMURIUM, Strain/Indicator: TA102, Metabolic Activation: NONE, Method: PREINCUBATION) “inactive; negative”; (Test System: AMES SALMONELLA TYPHIMURIUM, Strain/Indicator: TA102, Metabolic Activation: NONE, Method: STANDARD PLATE) “inactive; negative”; (Test System: AMES SALMONELLA TYPHIMURIUM, Strain/Indicator: TA102, Metabolic Activation: RAT LIVER S-9, AROCLOR 1254, Method: STANDARD PLATE) “inactive; negative”. For the same compound, the mutagenic call is “inactive; negative” (Test System: AMES SALMONELLA TYPHIMURIUM, Strain/Indicator: TA102, Metabolic Activation: RAT LIVER S-9, PHENOBARBITAL, BETA-NAPHTHOFLAVONE, Method: PREINCUBATION); “inactive; negative” (Test System: AMES SALMONELLA TYPHIMURIUM, Strain/Indicator: TA102, Metabolic Activation: RAT LIVER S-9, PHENOBARBITAL, BETA-NAPHTHOFLAVONE, Method: STANDARD PLATE); “inactive; negative” under setting [3]; “inactive; negative” (Test System: AMES SALMONELLA TYPHIMURIUM, Strain/Indicator: TA1535, Metabolic Activation: NONE, Method: STANDARD PLATE); “inactive; negative” (Test System: AMES SALMONELLA TYPHIMURIUM, Strain/Indicator: TA1535, Metabolic Activation: RAT LIVER S-9, PHENOBARBITAL, BETA-NAPHTHOFLAVONE, Method: PREINCUBATION); “inactive; negative” (Test System: AMES SALMONELLA TYPHIMURIUM, Strain/Indicator: TA1535, Metabolic Activation: RAT LIVER S-9, PHENOBARBITAL, BETA-NAPHTHOFLAVONE, Method: STANDARD PLATE). The mutagenic call reads like this: under setting [4], “inactive; negative”; (Test System: AMES SALMONELLA TYPHIMURIUM, Strain/Indicator: TA1537, Metabolic Activation: NONE, Method: STANDARD PLATE) “inactive; negative”; (Test System: AMES SALMONELLA TYPHIMURIUM, Strain/Indicator: TA1537, Metabolic Activation: RAT LIVER S-9, PHENOBARBITAL, BETA-NAPHTHOFLAVONE, Method: PREINCUBATION) “inactive; negative”; (Test System: AMES SALMONELLA TYPHIMURIUM, Strain/Indicator: TA1537, Metabolic Activation: RAT LIVER S-9, PHENOBARBITAL, BETA-NAPHTHOFLAVONE, Method: STANDARD PLATE) “inactive; negative”; (Test System: ESCHERICHIA COLI, Strain/Indicator: WP2 UVR A, Metabolic Activation: NONE, Method: PREINCUBATION) “inactive; negative”; (Test System: ESCHERICHIA COLI, Strain/Indicator: WP2 UVR A, Metabolic Activation: NONE, Method: STANDARD PLATE) “inactive; negative”. The mutagenic call is “inactive; negative” (Test System: ESCHERICHIA COLI, Strain/Indicator: WP2 UVR A, Metabolic Activation: RAT LIVER S-9, PHENOBARBITAL, BETA-NAPHTHOFLAVONE, Method: PREINCUBATION); “inactive; negative” (Test System: ESCHERICHIA COLI, Strain/Indicator: WP2 UVR A, Metabolic Activation: RAT LIVER S-9, PHENOBARBITAL, BETA-NAPHTHOFLAVONE, Method: STANDARD PLATE); “inactive; negative” (Test System: UDS RAT HEPATOCYTES, Metabolic Activation: NONE, Method: NET NUCLEAR GRAIN COUNT).
For the compound `COC(=O)[C@@H](C)Cl`, the mutagenic call under setting [2] is “active; positive” and the mutagenic call (Test System: AMES SALMONELLA TYPHIMURIUM, Strain/Indicator: TA100, Metabolic Activation: RAT, LIVER, S-9, PCB, Method: PREINCUBATION) is “active; positive”.
As for `C=C(C)C(=O)OC(C)C`, the mutagenic call reads like this: (Test System: AMES SALMONELLA TYPHIMURIUM, Strain/Indicator: TA98, Metabolic Activation: HAMSTER, LIVER, S-9, AROCLOR 1254 (10%), Method: PREINCUBATION) “inactive; negative”; under setting [1], “inactive; negative”; (Test System: AMES SALMONELLA TYPHIMURIUM, Strain/Indicator: TA98, Metabolic Activation: RAT, LIVER, S-9, AROCLOR 1254 (10%), Method: PREINCUBATION) “inactive; negative”; (Test System: AMES SALMONELLA TYPHIMURIUM, Strain/Indicator: TA100, Metabolic Activation: HAMSTER, LIVER, S-9, AROCLOR 1254 (10%), Method: PREINCUBATION) “inactive; negative”; under setting [2], “inactive; negative”; (Test System: AMES SALMONELLA TYPHIMURIUM, Strain/Indicator: TA100, Metabolic Activation: RAT, LIVER, S-9, AROCLOR 1254 (10%), Method: PREINCUBATION) “inactive; negative”. The mutagenic call runs as follows: (Test System: AMES SALMONELLA TYPHIMURIUM, Strain/Indicator: TA1535, Metabolic Activation: HAMSTER, LIVER, S-9, AROCLOR 1254 (10%), Method: PREINCUBATION) “inactive; negative”; under setting [3], “inactive; negative”; (Test System: AMES SALMONELLA TYPHIMURIUM, Strain/Indicator: TA1535, Metabolic Activation: RAT, LIVER, S-9, AROCLOR 1254 (10%), Method: PREINCUBATION) “inactive; negative”; (Test System: AMES SALMONELLA TYPHIMURIUM, Strain/Indicator: TA1537, Metabolic Activation: HAMSTER, LIVER, S-9, AROCLOR 1254 (10%), Method: PREINCUBATION) “inactive; negative”; under setting [4], “inactive; negative”; (Test System: AMES SALMONELLA TYPHIMURIUM, Strain/Indicator: TA1537, Metabolic Activation: RAT, LIVER, S-9, AROCLOR 1254 (10%), Method: PREINCUBATION) “inactive; negative”.
